{
  "source": "paper PMC11583123",
  "about": "“Linker Chemistry and Connectivity Fine-Tune the Immune Response and Kinetic Solubility of Conjugated NOD2/TLR7 Agonists” (Bioconjugate Chemistry, 2024)",
  "key": {"[1]": {"system": "human primary peripheral blood mononuclear cells (PBMCs)", "assay": "Cytokine release from peripheral blood mononuclear cells (LEGENDplex)", "assay_type": "cell-based", "settings": "1 μM, 18 h, Figure S2", "experimental": "Third, the immunostimulatory potential of synthesized conjugates was assessed in human primary peripheral blood mononuclear cells (PBMCs) (Figure 3, Supporting Table), which represent a diverse array of immune cell subpopulations, providing a more physiologically relevant system for studying concurrent NOD2/TLR7 or NOD2/TLR7/TLR8 activation. […]\nsoftware (version 9; GraphPad Software, CA, USA). The experiments were run in duplicates, and repeated as at least three independent biological replicates.\n3.5 Cytokine Release from Peripheral Blood Mononuclear Cells […]\ngrowth medium and treated with the compounds (1 μM), or the corresponding vehicle (0.1% DMSO).\nCell-free supernatants were collected after 18 h of incubation (37 °C, 5% CO2) and stored at −80 °C until tested. Cytokine concentrations were determined with the LEGENDplex™ HU Essential Immune Response Panel (Biolegend) on an Attune NxT flow cytometer (Thermo Fisher Scientific, Waltham, MA). […] The data were analyzed using the FlowJo (Tree Star, Inc., Ashland, OR) and Prism (GraphPad, San Diego, CA) software.\nStatistical significance was determined with one-way ANOVA with subsequent Dunnett’s multiple […]\nThe data were analyzed using Prism software (version 9; GraphPad Software, CA, USA). Statistical significance was determined according to the specific procedures outlined in each experiment. […]"}, "[2]": {"assay": "Kinetic solubility in PBS (UHPLC, method of Hoelke et al.)", "assay_type": "physicochemical", "settings": "PBS, 5% DMSO", "experimental": "Second, the kinetic solubility of all individual building blocks (compounds 4-7) and conjugates was determined (results are listed in Table 1) in order to highlight how fine-tuning of linker traits can impact this physicochemical property. Kinetic solubility refers to the maximum solubility of a compound when it precipitates from a supersaturated solution, which is metastable and not in equilibrium; it was measured using the method described by Hoelke et al.[34] The length and composition of the linker as well as linkage site are important for activity and physicochemical characteristics of conjugates, which in turn affect their pharmacokinetic profiles. In general, the benzylic COOH was exploited exclusively as the linker attachment site in TLR7 agonist-featuring conjugates, while two potential linkage sites were considered in the structure of NOD2 agonist. […] In conjugates 22-24 and 29, the moieties were connected via the γ-COOH group of the NOD2 agonist. […] It has to be kept in mind that among the polyalkylethers, the structural requirements for aqueous solubility are poised toward the (−OCH2CH2−)n unit while (−OCH2CH2CH2−)n is not beneficial in this respect.[35] […]\nsuspension was filtered through a syringe filter (0.45 μm), diluted 2.25-fold with acetonitrile, and analyzed with UHPLC. The solubility was quantified with a five-point calibration curve from 500 to 0.8 μM generated by dilution of the original DMSO solution into a 1:1 mixture of acetonitrile and PBS. The content of DMSO in all solutions was fixed to 5% by adding the respective amounts of DMSO. The column used was Waters Acquity UPLC BEH C18 (1.7 μm, 2.1 × 50 mm). The eluent was a mixture of 0.1% TFA in water (A) and acetonitrile (B), with a gradient of (%B): 0−6 min, 5−95%; 6−8 min, 95%; 8−8.5 min, 95−5%. The column was thermostated at 40 °C.\n3.1. Hek-Blue NOD2, TLR7 and TLR8 cells. […]\n(BioTek Synergy microplate reader; Winooski, VT, USA). EC50 values were calculated using Prism"}, "[3]": {"settings": "aqueous with cosolvent or surfactant or cyclodextrin, kinetic from dmso stock"}},
  "note": "Entries after “also recorded” stand apart in the source; their conditions may differ.",
  "data": [
    {"smiles": "CCOCc1nc2c(NC(=O)CCCCCNC(=O)CC[C@@H](NC(=O)[C@@H](NC(=O)CNC(=O)/C=C/c3ccc(O)c(OC)c3)C(C)C)C(=O)OCC)nc3ccccc3c2n1CC(C)(C)O", "note": "[compound 32]", "values": [
      {"measurement": "Cytokine release versus combinations of 5 + 6 or 5 + 7 (in words)", "setting": "[1]", "value": "devoid of any potential synergistic effect; also recorded: not significantly increased"},
      {"measurement": "solubility kinetic", "setting": "[2]", "value": 437.3, "unit": "µM"},
      {"measurement": "solubility kinetic", "setting": "[2]; [3]", "value": 437, "unit": "µM"}
    ]},
    {"smiles": "CCOCc1nc2c(N)nc3ccccc3c2n1CC(C)(C)NC(=O)CCCCCNC(=O)CC[C@@H](NC(=O)[C@@H](NC(=O)CNC(=O)/C=C/c1ccc(O)c(OC)c1)C(C)C)C(=O)OCC", "note": "[compound 33]", "values": [
      {"measurement": "Cytokine release versus combinations of 5 + 6 or 5 + 7 (in words)", "setting": "[1]", "value": "devoid of any potential synergistic effect; also recorded: not significantly increased"},
      {"measurement": "solubility kinetic", "setting": "[2]", "value": 404.1, "unit": "µM"},
      {"measurement": "solubility kinetic", "setting": "[2]; [3]", "value": 404, "unit": "µM"}
    ]}
  ]
}
